PMC9221509, “Discovery of a Novel Antimicrobial Peptide, Temporin-PKE, from the Skin Secretion of Pelophylax kl. esculentus, and Evaluation of Its Structure-Activity Relationships” (Biomolecules, 2022)
Read-outs that look alike come from different tables or passages of the source. Non-standard residues stand in square brackets, D forms with d. Residues, ends and D or L forms follow the SMILES beside them. No end group written: not given here.

Tests used:
E. coli (ATCC CRM 8739) = experiment: microbe, parasite or virus in culture; type: cell-based, Escherichia coli; conditions: for MBC: ATCC CRM 8739, 18 h; for MIC: ATCC CRM 8739, 24 h
Method: (§1) The antimicrobial activities of peptides were evaluated against the Gram-positive bacteria, S. aureus (ATCC 6538), methicillin-resistant Staphylococcus aureus (MRSA) (NCTC 12493), Enterococcus faecalis (E. faecalis) (NCTC 12697); the Gram-negative bacteria, E. coli (ATCC CRM 8739), Klebsiella pneumoniae (K. pneumoniae) (ATCC 43816), Pseudomonas aeruginosa (P. aeruginosa) (ATCC CRM 9027); and the yeast, Candida albicans (C. albicans) (ATCC CRM 10231). Clinical isolates of MRSA (B042 V2E1 A), E. coli (ATCC BAA-2340), K. pneumoniae (ATCC BAA-1705), and P. aeruginosa (B004 V2S2 B) were also used to determine their antimicrobial activities. The suspension of microorganisms in the logarithmic growth phase with a specific final density (Gram-negative and Gram-positive bacteria: 5 × 10^5 CFU/mL; yeast: 1 × 10^6 CFU/mL) was incubated with different peptide concentrations from 1 µM to 512 µM at 37 °C for 24 h. PBS was used as the negative control, and norfloxacin and amphotericin B were selected as the positive control for bacteria and yeast, respectively. Since the Norfloxacin had weak activities against P. aeruginosa (B004 V2S2 B) and K. pneumoniae (ATCC BAA 1705), gentamicin was used as the positive control for these two bacterial strains. The absorbance of each well was obtained using a microplate reader (EL808, Biolise BioTek, Winooski, VT, USA) set at 550 nm wavelength. The MIC value was the lowest concentration of a peptide that inhibits visible bacterial growth. Once the MIC values were determined, an aliquot from the bacterial culture exposed to the peptide at or above its MIC value was inoculated on a Mueller Hinton agar (MHA) and was incubated at 37 for 18 h. The MBC value was the lowest concentration of a peptide that kills 99.9% of bacteria.

E. coli (ATCC BAA-2340) = experiment: microbe, parasite or virus in culture; type: cell-based, Escherichia coli; conditions: for MBC: ATCC BAA-2340, 18 h; for MIC: ATCC BAA-2340, 24 h
Method: as §1

[1] = test system: K. pneumoniae (ATCC 43816) biofilm; type: cell-based, Klebsiella pneumoniae; conditions: ATCC 43816, 24 h
Method: (§2) The anti-biofilm activities of the peptides against S. aureus (ATCC 6538), MRSA (NCTC 12493), E. faecalis (NCTC 12697), E. coli (ATCC CRM 8739), K. pneumoniae (ATCC 43816), and P. aeruginosa (ATCC CRM 9027), were evaluated. For the MBIC assay, 99 µL of bacterial suspension (5 × 10^5 CFU/mL) was mixed with 1 µL of serial dilutions (from 100 µM to 51,200 µM) of temporin-PKE and its analogues in a 96-well plate, and the plate was incubated in a moist shaking incubator at a speed of 200 rpm at 37 °C for 24 h. For the MBEC assay, 100 µL of bacterial suspension (5 × 10^5 CFU/mL) in each well was seeded in a new 96-well plate, and the plate was put into the same shaking incubator for 24 h incubation to allow biofilm formation on the well. After biofilm formation, the biofilm in the plate was washed with PBS twice. The PBS was aspirated between washes to remove planktonic bacterial cells. The washed biofilm in each well was treated with 100 µL of serial dilutions (from 1 µM to 512 µM) of the test peptides. Then, the plate was incubated in the same shaking incubator for another 24 h. After being washed by PBS twice and fixed with methanol, the biofilm in each well was incubated with 100 µL of 0.1% crystal violet for 30 min, and the stained biofilm was dissolved in 100 µL of glacial acidic acid after drying. The solutions were transferred to a new microplate, and the absorbance of each well was measured using a microplate reader (EL808, Biolise BioTek, Winooski, VT, USA) set to 595 nm wavelength. The MBIC was the minimum concentration of the peptide showing no biofilm formation. The MBEC is the lowest concentration of the peptide capable of eradicating the mature biofilms, which had no biofilm in the well.

[2] = test system: E. coli (ATCC CRM 8739) biofilm; type: cell-based, Escherichia coli; conditions: ATCC CRM 8739, 24 h
Method: as §2

wax moth larvae = experiment: Toxicity in wax moth larvae (uninfected); type: in vivo, Galleria mellonella; conditions: n = 9 in each group
Method: The antimicrobial activities of temporin-PKE and temporin-PKE-3K, in vivo, were studied in the wax moth larvae model. Wax moth larvae (Livefood UK Ltd., Rooks Bridge, UK), weighing 250 ± 25 mg, were divided into different groups (n = 9 in each group). […] After 2 h of exposure, 10 µL of peptide solution, with concentrations of 4, 8, and 16 mg/kg, was injected into the larvae in each group. PBS was utilised as the negative control, and 50 mg/kg vancomycin was selected as the positive control for MRSA. The survival rates of the larvae were recorded every 12 h for 120 h.

Compound | MBC (E. coli (ATCC CRM 8739); read-out: MBC) | MIC (E. coli (ATCC CRM 8739); read-out: MIC) | MBC (E. coli (ATCC BAA-2340); read-out: MBC) | MIC (E. coli (ATCC BAA-2340); read-out: MIC) | MBIC [1] | MBIC [2] | MBC (E. coli (ATCC CRM 8739)) | MIC (E. coli (ATCC CRM 8739)) | MBC (E. coli (ATCC BAA-2340)) | MIC (E. coli (ATCC BAA-2340)) | survival of larvae injected with peptide (wax moth larvae; doses of 16 mg/kg) | mortality of larvae treated with peptide (wax moth larvae; highest test concentration, late stage)
CC[C@@H](C)[C@@H](NC(=O)[C@H](CCCCN)NC(=O)[C@@H]1CCCN1C(=O)[C@H](CC(C)C)NC(=O)[C@H](CC(C)C)NC(=O)[C@H](CO)NC(=O)[C@H](CO)NC(=O)[C@H](CC(C)C)NC(=O)[C@H](C)NC(=O)CNC(=O)[C@H](NC(=O)[C@H](NC(=O)[C@H](CC(C)C)NC(=O)[C@@H]1CCCN1C(=O)[C@H](CC(C)C)NC(=O)[C@@H](N)Cc1ccccc1)[C@H](C)CC)[C@H](C)CC)C(=O)N[C@@H](Cc1ccccc1)C(N)=O [Temporin-PKE-3i] (H-FLPL[dI][dI]GALSSLLPK[dI]F-NH2) | >512 µM | >512 µM | >512 µM | >512 µM | >512 µM | >512 µM |  |  |  |  |  | 
FLPLIIGKLSSLLPKIF-NH2 [Temporin-PKE-2K] |  |  |  |  | 128 µM | 64 µM | 4 µM | 4 µM | 8 µM | 8 µM |  | 
FLPKIIGKLSSLLPKIF-NH2 [Temporin-PKE-3K] |  |  |  |  | 32 µM | 16 µM | 2 µM | 2 µM | 2 µM | 2 µM | totally survived | 
FLPLIIGALSSKLPKIF-NH2 [Temporin-PKE-K12] |  |  |  |  | 512/>512 μM | 64 µM | 8 µM | 8 µM | 16 µM | 16 µM |  | 
FLPKIIGKLSSKLPKIF-NH2 [Temporin-PKE-4K] |  |  | 64 µM | 32 µM | 256 µM | 128 µM | 4 µM | 4 µM |  |  |  | 
FLPLIIGALSSLLPKIF-NH2 [Temporin-PKE] | >512 µM | >512 µM | >512 µM | >512 µM | >512 µM | >512 µM |  |  |  |  |  | 50%
CC[C@@H](C)[C@@H](NC(=O)[C@H](CCCCN)NC(=O)[C@@H]1CCCN1C(=O)[C@H](CC(C)C)NC(=O)[C@H](CC(C)C)NC(=O)[C@H](CO)NC(=O)[C@H](CO)NC(=O)[C@H](CC(C)C)NC(=O)[C@H](C)NC(=O)CNC(=O)[C@@H](NC(=O)[C@@H](NC(=O)[C@H](CC(C)C)NC(=O)[C@@H]1CCCN1C(=O)[C@H](CC(C)C)NC(=O)[C@@H](N)Cc1ccccc1)[C@@H](C)CC)[C@@H](C)CC)C(=O)N[C@@H](Cc1ccccc1)C(N)=O [Temporin-PKE-i] (H-FLPLIIGALSSLLPK[dI]F-NH2) | >512 µM | >512 µM | >512 µM | >512 µM | >512 µM | >512 µM |  |  |  |  |  | 
